Legend:
H3K9Ac (SIRT1 substrate) = assay: Western blot of H3K9Ac in MDA-MB-231 cells; assay type: cell-based, human; conditions: 6 h
Experimental: MCF-7 and MDA-MB-231 cells were plated in 96-well plates (initial density: 1 × 10^3 cells per well) and incubated at 37 °C. After 24 h, test compound solutions (50 μL/well) of varying concentrations in medium (DMEM and Leibovitz's L-15 for MCF-7 and MDA-MB-231 cells respectively) for were added to the cells at 37 °C under 5% CO2 in air and left to react for 72 h. Thereafter, the mixtures were treated with 10 μL of AlamarBlue® (AbD Serotec, #BUF012A), incubation was continued at 37 °C for 3 h. The fluorescence in each well was measured with an ARVOTM X3 microplate reader (λex = 540 nm; λem = 590 nm). With the obtained fluorescence readings, it was possible to calculate the percentage of cell growth.
MDA-MB-231 cells (5 × 10^5 cells/2 mL/dish) were treated for 6 h with the test compounds at the indicated concentrations in the cell culture medium, before the cells were collected and extracted with SDS buffer. The protein concentrations of the lysates were determined using a BCA protein assay.
Equivalent amounts of protein from each lysate were resolved in 5–20% SDS-polyacrylamide gels and transferred onto PVDF membranes. […]
For the differentiation study, the medium was changed to DMEM supplemented with 2% FBS. After incubation with or without 36 for 72 h, the cell morphology was examined using a microscope (Olympus CKX41) and further analyzed with the Photomeasure software (Kenis Ltd.). […]

SIRT2 = target: T1, SIRT2 (Homo sapiens, UniProt Q8IXJ6); assay: SIRT2 substrate competition analysis and time-dependent inhibition; assay type: biochemical; set-up: purchased Biomol / Enzo Life Sciences (Fluor de Lys kit AK-556) BML SE-251-0500
T1 sequence (Q8IXJ6 1-389): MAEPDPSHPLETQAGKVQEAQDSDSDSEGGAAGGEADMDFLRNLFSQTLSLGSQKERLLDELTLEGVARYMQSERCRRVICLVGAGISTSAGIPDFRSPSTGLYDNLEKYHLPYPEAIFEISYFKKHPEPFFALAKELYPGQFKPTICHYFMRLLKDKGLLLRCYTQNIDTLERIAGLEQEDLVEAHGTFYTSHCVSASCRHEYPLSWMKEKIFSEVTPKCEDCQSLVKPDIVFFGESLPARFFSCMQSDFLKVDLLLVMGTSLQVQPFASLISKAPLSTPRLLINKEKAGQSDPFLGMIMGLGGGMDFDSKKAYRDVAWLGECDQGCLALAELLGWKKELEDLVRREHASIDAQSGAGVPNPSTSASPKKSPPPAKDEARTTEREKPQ
Experimental: added to the blank wells). […] Thereafter, […]
which three independent curves were generated. […]
added to the blank wells).
The results were plotted using GraFit 7.0.3.
SIRT2 substrate competition analysis for 36
The assay follows in general the same procedure reported for the SIRT2 assay (vide supra), except for the following changes: reaction time = 45 min; [NAD+] = 2 mM; [substrate] = 50, 80, 150, or […]
Mass spectrometric detection of the ADP-ribose conjugate
Reactions were conducted for 5 min at 37 °C in 5 μL containing 1.9 μM SIRT2 (SignalChem), 500 μM NAD+ or 6-AE-NAD+ (BIOLOG Life Science Institute), and 1 mM 36, as well as 40 mM sodium phosphate buffer (pH = 7.0), containing 240 mM NaCl, 120 mM imidazole, 0.08 mM PMSF, 0.2 mM DTT, 20% glycerol, and 2% DMSO. Controls were measured in the absence of compounds or the enzyme. The reaction mixtures were diluted with 5 μL of water and purified using ZipTip-μC18 (Millipore). The fraction eluted with 2 μL of 50% acetonitrile containing α-cyano-4-hydroxycinnamic acid at a concentration of 5 mg/mL was directly subjected to MALDI-TOF MS analysis. MALDI-TOF mass spectra were acquired on an AB SCIEX TOF/TOF™ 5800 (AB SCIEX) in reflectron […]

neuro-2a (N2a) cells = assay: Neurite outgrowth assay; assay type: cell-based, mouse; conditions: 72 h, vehicle 14.22 ± 2.9%

- time dependence of SIRT2 inhibitory effect (SIRT2; incubation 0–120 min with SIRT2, acetylated substrate, NAD+): time-dependent
Structure (SMILES): C[C@H](NC(=O)[C@H](CCCCNC(=S)CNC(=O)c1ccccc1Nc1cccc(OCCc2ccccc2)c1)NC(=O)OCc1ccccc1)C(N)=O [Compound 36]
- H3K9Ac level (western blot) (H3K9Ac (SIRT1 substrate)): did not upregulate
- mode of SIRT2 inhibition (substrate competition analysis) (SIRT2; Lineweaver–Burk plot, NAD+ saturation): competitive inhibition with the acetylated lysine substrate
- percentage of differentiated cells (neuro-2a (N2a) cells; 0.5 μM): 23.09 ± 3.21%
- percentage of differentiated cells (neuro-2a (N2a) cells; 1 μM): 25.73 ± 1.3%
